The values below come from patent publication US20220193029A1, “BRYOSTATIN COMPOUNDS FOR ENHANCEMENT OF IMMUNOTHERAPY” (priority 2019, published 2022).

Assay [1] has as its target T1, PKCδ (Homo sapiens, UniProt Q05655).
T1 construct: purchased Invitrogen
Kind of assay: cell-free competitive PKC binding assay with [3H]-phorbol dibutyrate. As to conditions: competition with [3H]-PDBu, recombinant human PKC isoform. Here is the method: (§1) Because a prerequisite for PKC pathway involvement is binding to PKC, compounds were initially evaluated for PKC affinity in a cell-free competitive binding assay with tritiated phorbol dibutyrate ([^3H]-PDBu). Assays were performed with representative members of both the conventional (PKCα) and novel (PKCδ) PKC families. Subsequently, compounds were assayed for PKC activation in living cells using an isoform translocation assay.
(§2) To a 50 mL polypropylene tube was added Tris-HCl (pH 7.4, 1 M, 1 mL), KCl (1 M, 2 mL), CaCl2) (0.1 M, 30 μL), and bovine serum albumin (BSA, 40 mg, Sigma-Aldrich). This mixture was diluted to 20 mL with deionized H2O and mixed gently. The buffer was stored on ice until use.
(§3) For every two assays, 3.5 mg phosphatidylserine (Avanti Polar Lipids, porcine, 25 mg/mL CHCl3 solution) was concentrated by removing chloroform under a stream of nitrogen followed by reduced pressure. The solid PS was suspended as vesicles in freshly prepared PKC binding assay buffer (3.5 mL) by sonicating six times for 30 sec, with a 30 sec rest between sonications (Branson Sonifier 250, power=2, 50% duty cycle). The resulting milky cloudy mixture (1 mg/mL) was stored on ice until use.
(§4) Assay PKC was prepared by dissolving a 4 μg aliquot of the indicated recombinant human PKC isoform (Invitrogen) into 11.6 mL of PKC binding assay buffer (this amount is sufficient for two assays). The diluted PKC was stored on ice for immediate use.
(§5) ^3H-PDBu (American Radiolabeled Chemicals, Inc.; 1 mCi/mL acetone solution; specific activity: 20 Ci/mmol) was diluted […] with DMSO. The resulting 500 nM stock solution was further diluted with DMSO to 30 nM.
(§6) Compound dilutions were prepared by serially diluting from a chosen “high” concentration by factors of 3 or 4.
(§7) To a polypropylene tube was added 3.3 mL of 1 mg/mL PS vesicles solution, 11 mL of PKC isoform solution, and 1.1 mL of 30 nM ^3H-PDBu solution were added. The resulting solution was vortexed to mix and stored on ice.
(§8) Materials: • Glass-fiber filters (Whatman GF/B) were prepared by soaking them in a solution of aqueous polyethyleneimine (10% by vol, 18 mL) in deionized water (600 mL) for ≥1 h. • 500 mL “rinsing buffer” of 20 mM Tris, pH 7.4 was cooled on ice for the duration of the incubation period and for the remainder of the assay.
Triplicate data points were obtained for each analog concentration. For each data point, 280 μL of “Master Mix” Solution and 20 μL of analog compound at a specified concentration were added to a polypropylene tube. […] Maximal ^3H-PDBu binding was assessed in triplicate by substitution of the analog compound with 20 μL DMSO. The solutions were vortexed to mix, incubated at 37° C. for 10 min, and incubated on ice for at least 30 min prior to filtration. Using a Brandel Harvester, the assay contents from each polypropylene tube were vacuum-filtered through polyethylenimine-soaked filters, washing with rinsing buffer (3×) and drying first under vacuum for 5 min and then under ambient conditions for ≥2 h. The resulting filters had circular perforations for each data point, which were removed with forceps and placed in a scintillation vial. Scintillation vials were filled with Bio-Safe II scintillation fluid (5 mL) and measured for radioactivity using a Beckman LS 6000SC scintillation counter. Counts per minute (cpm) were averaged for each triplicate dilution. The data were plotted—cpm vs. log(concentration)—using Prism® by GraphPad Software and an IC50 was determined using that program's built-in one-site competition least squares regression function. […] The Kd of ^3H-PDBu for PKC isoforms was measured separately via saturation binding experiments under identical conditions.

For assay [2], the system named is CD22 surface expression in NALM6 cells. Nature of the assay: CD22 surface expression assay by flow cytometry. The format is cell-based, human. As to conditions: NALM6 cells; for Fold increase CD22 expression / fold induction at 0.001 µM: At 1 nM, relative to DMSO control; for fold induction at 0.001 µM: Homo sapiens, NALM-6, read-out: Fold increase CD22 expression. Here is the method:
Cell cultures were maintained between 4×10^5 and 3×10^6 cells/mL according to vendor instructions.
Cell suspension from a confluent T75 flask (Fisher) was transferred to a 15 mL falcon tube and centrifuged at 1100 rpm for 7 minutes. […] Cells were counted using a Countess II Automated Cell Counter (Fisher). […] 199 μL of this stock was added to 24 wells (enough for triplicate measurements for 8 different experimental conditions) in a 96-well plate. […] 1 μL of DMSO or the appropriate stock solution of compound in DMSO was added to each well. Cells were incubated for 24 hours, at which point the cell suspensions were transferred to 1.5 mL Eppendorf tubes and diluted with 1.0 mL of PBS (Hyclone, without Ca^2+ or Mg^2+). Samples were centrifuged at 2000 rpm for 5 min at RT. […] Cells were sub-cultured between 2×10^5 and 3×10^6 cells/mL in 24-well plates for an additional 24 hrs-7 days, at which point CD22 surface expression was assayed by flow cytometry.
Cells from one well were counted using a Countess II Automated Cell Counter (Fisher). ˜200,000-300,000 cells from each well were added to 1.5 mL Eppendorf tubes containing PBS (final volume ˜1.2 mL). The cell suspensions were centrifuged at 1500 rpm for 7 minutes at 4° C. The supernatant was aspirated, and the cell pellet was resuspended in 99 μL of pre-chilled FACS buffer (0.5% w/v BSA in PBS). […] Samples were then diluted with an additional 1.0 mL of FACS buffer and centrifuged at 1500 rpm for 7 minutes at 4° C. […] Cells were stained with DAPI and CD22 surface expression was analyzed using the FACScan Analyzer at the Stanford Shared FACS Facility. Data analysis was performed using FlowJo and Microsoft Excel.
Background: Flow cytometry measures light scatter and fluorescence of single cells or particles in a stream.

For assay [3], the target named is T2, PKCα (Homo sapiens, UniProt P17252).
T2 construct: purchased Invitrogen
Nature of the assay: cell-free competitive PKC binding assay with [3H]-phorbol dibutyrate. Particulars: competition with [3H]-PDBu, recombinant human PKC isoform. As to the method: as §1, §2, §3, §4, §5, §6, §7, §8
Triplicate data points were obtained for each analog concentration. For each data point, 280 μL of “Master Mix” Solution and 20 μL of analog compound at a specified concentration were added to a polypropylene tube. […] Maximal ^3H-PDBu binding was assessed in triplicate by substitution of the analog compound with 20 μL DMSO. The solutions were vortexed to mix, incubated at 37° C. for 10 min, and incubated on ice for at least 30 min prior to filtration. Using a Brandel Harvester, the assay contents from each polypropylene tube were vacuum-filtered through polyethylenimine-soaked filters, washing with rinsing buffer (3×) and drying first under vacuum for 5 min and then under ambient conditions for ≥2 h. The resulting filters had circular perforations for each data point, which were removed with forceps and placed in a scintillation vial. Scintillation vials were filled with Bio-Safe II scintillation fluid (5 mL) and measured for radioactivity using a Beckman LS 6000SC scintillation counter. Counts per minute (cpm) were averaged for each triplicate dilution. The data were plotted—cpm vs. log(concentration)—using Prism® by GraphPad Software and an IC50 was determined using that program's built-in one-site competition least squares regression function. Ki values were calculated using the equation: Ki=IC50/(1+([3H−PDBu]/Kd)). The Kd of ^3H-PDBu for PKC isoforms was measured separately via saturation binding experiments under identical conditions.

T1 sequence (Q05655 whole entry): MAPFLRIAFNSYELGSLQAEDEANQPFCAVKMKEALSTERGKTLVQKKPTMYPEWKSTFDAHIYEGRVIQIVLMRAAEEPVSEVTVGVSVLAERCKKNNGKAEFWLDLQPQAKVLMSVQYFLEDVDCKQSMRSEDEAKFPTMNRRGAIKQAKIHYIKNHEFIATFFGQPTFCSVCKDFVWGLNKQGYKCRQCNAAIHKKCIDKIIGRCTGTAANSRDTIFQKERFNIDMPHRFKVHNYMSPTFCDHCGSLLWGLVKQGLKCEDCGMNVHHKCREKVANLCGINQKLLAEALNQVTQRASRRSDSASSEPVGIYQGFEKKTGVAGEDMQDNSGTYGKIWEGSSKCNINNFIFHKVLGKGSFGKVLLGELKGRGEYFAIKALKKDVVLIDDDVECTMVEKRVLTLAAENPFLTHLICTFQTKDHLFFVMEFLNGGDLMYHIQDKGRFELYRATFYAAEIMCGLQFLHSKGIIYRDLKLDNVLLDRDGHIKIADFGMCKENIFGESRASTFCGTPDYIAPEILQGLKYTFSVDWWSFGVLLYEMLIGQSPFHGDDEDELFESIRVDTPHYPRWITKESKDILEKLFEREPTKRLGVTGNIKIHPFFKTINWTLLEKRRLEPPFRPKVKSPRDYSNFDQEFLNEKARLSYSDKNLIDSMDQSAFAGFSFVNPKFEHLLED

With `C=CCOC(=O)/C=C1/C[C@H]2C[C@]3(O)O[C@H](C[C@@H](O)CC(=O)O[C@@H]([C@@H](C)O)C[C@@H]4C/C(=C\C(=O)OC)[C@H](OC(=O)/C=C/C=C/CCC)[C@@](O)(O4)C(C)(C)/C=C/[C@@H](C1)O2)C[C@H](OC(C)=O)C3(C)C` [SUW229], the values for the Ki in assay [1] and in assay [3] were 1.2 nM and 1.8 nM, respectively. Further, in assay [2] (1 nM or 10 nM, 24 hours), the “activity in the CD22 induction assay, in words” value was “top performer”.
Take `CCCC=CC=CC(=O)OC1C(=CC(=O)OC)CC2CC(C(C)O)OC(=O)CC(O)CC3CC(OC(C)=O)C(C)(C)C(O)(CC4CC(=CC(=O)OCC)CC(C=CC(C)(C)C1(O)O2)O4)O3` (stereo not drawn) [SUW218]: the Ki in assay [1] came out at 6.6 nM; in assay [3], 7.1 nM. Moreover, in assay [2], the “Fold increase CD22 expression” value is 1.92 fold.
Take `CCC/C=C/C=C/C(=O)O[C@H]1/C(=C/C(=O)OC)C[C@H]2C[C@H]([C@@H](C)O)OC(=O)C[C@H](O)C[C@@H]3C[C@H](OC(C)=O)C(C)(C)[C@](O)(C[C@@H]4C[C@@H](OC(C)=O)C[C@H](/C=C/C(C)(C)[C@]1(O)O2)O4)O3` [SUW207]: the inhibitory constant (Ki) is 5.4 nM in assay [1] and 2 nM in assay [3]. For the same molecule, the fold induction at 0.001 µM in assay [2] was 1.33.
For `CCCCCCCC(=O)O[C@H]1/C(=C/C(=O)OC)C[C@H]2C[C@H]([C@@H](C)O)OC(=O)C[C@H](O)C[C@@H]3C[C@H](OC(C)=O)C(C)(C)[C@](O)(C[C@@H]4C[C@@H](C)C[C@H](/C=C/C(C)(C)[C@]1(O)O2)O4)O3` [SUW226], the Ki in assay [1] turned out to be 6.6 nM; in assay [3], 5.8 nM. The fold induction at 0.001 µM in assay [2] stood at 1.76.
With `CCC/C=C/C=C/C(=O)O[C@H]1/C(=C/C(=O)OC)C[C@H]2C[C@H]([C@@H](C)O)OC(=O)C[C@H](O)C[C@@H]3C[C@H](OC(C)=O)C(C)(C)[C@](O)(C[C@@H]4C[C@H](OC(C)=O)C[C@H](/C=C/C(C)(C)[C@]1(O)O2)O4)O3` [SUW206], the Ki in assay [1] was determined as 1.3 nM; in assay [3] it was 1 nM. In addition, the fold induction at 0.001 µM in assay [2] came out at 1.63.
The like results for `CCCCCC#CC(=O)O[C@H]1/C(=C/C(=O)OC)C[C@H]2C[C@H]([C@@H](C)O)OC(=O)C[C@H](O)C[C@@H]3C[C@H](OC(C)=O)C(C)(C)[C@](O)(C[C@@H]4C[C@@](O)(CO)C[C@H](/C=C/C(C)(C)[C@]1(O)O2)O4)O3` [SUW203] were, in that order, 4.1 nM, 1 nM and 1.16.
As to `CCCC=CC=CC(=O)OC1C(=CC(=O)OC)CC2CC(C(C)O)OC(=O)CC(O)CC3CC(OC(C)=O)C(C)(C)C(O)(CC4CC(=CC(=O)OCC)CC(C=CC(C)(C)C1(O)O2)O4)O3` (stereo not drawn) [SUW217], the Ki amounted to 9.4 nM in assay [1] and 9.2 nM in assay [3]. Also, the “Fold increase CD22 expression” value in assay [2] came out at 1.97 fold.

One may read the Ki as a measure of affinity in units of concentration, obtained from inhibition or displacement.
